Results reported in ChEMBL document CHEMBL5154721, “Discovery of HDAC6-Selective Inhibitor NN-390 with in Vitro Efficacy in Group 3 Medulloblastoma” (J Med Chem, 2022).
Activity calls are given as the source filed them. No cut-off for these calls is given here.

Key:
[1] = Dissociation constant, pKa of compound; type: physicochemical
MV4-11 [2] = assay: Induction of apoptosis in human MV4-11 cells assessed as viable cells at 2 uM after 24 hrs by Annexin V/PI staining based flow cytometric analysis (Rvb=58.28%); type: functional; details: read-out: Activity
HD-MB03 = assay: Antiproliferative activity against human HD-MB03 cells at 964 nM after 4 hrs by microplate reader method; type: functional, cell-based
[3] = Cytotoxicity against human fetal neuronal stem cells assessed as inhibition of cell growth incubated for 72 hrs measured by spectrophotometer analysis; type: toxicity, cell-based, NSC
MV4-11 [4] = assay: Induction of apoptosis in human MV4-11 cells assessed as viable cells at 0.25 uM after 24 hrs by Annexin V/PI staining based flow cytometric analysis (Rvb=58.28%); type: functional; details: read-out: Activity
[5] = target: T1, Protein deacetylase HDAC6 (Homo sapiens) (UniProt Q9UBN7); assay: Binding affinity to full length human recombinant HDAC6 expressed in Sf9 baculovirus system assessed as residence time (1/koff)
T1 sequence (whole entry): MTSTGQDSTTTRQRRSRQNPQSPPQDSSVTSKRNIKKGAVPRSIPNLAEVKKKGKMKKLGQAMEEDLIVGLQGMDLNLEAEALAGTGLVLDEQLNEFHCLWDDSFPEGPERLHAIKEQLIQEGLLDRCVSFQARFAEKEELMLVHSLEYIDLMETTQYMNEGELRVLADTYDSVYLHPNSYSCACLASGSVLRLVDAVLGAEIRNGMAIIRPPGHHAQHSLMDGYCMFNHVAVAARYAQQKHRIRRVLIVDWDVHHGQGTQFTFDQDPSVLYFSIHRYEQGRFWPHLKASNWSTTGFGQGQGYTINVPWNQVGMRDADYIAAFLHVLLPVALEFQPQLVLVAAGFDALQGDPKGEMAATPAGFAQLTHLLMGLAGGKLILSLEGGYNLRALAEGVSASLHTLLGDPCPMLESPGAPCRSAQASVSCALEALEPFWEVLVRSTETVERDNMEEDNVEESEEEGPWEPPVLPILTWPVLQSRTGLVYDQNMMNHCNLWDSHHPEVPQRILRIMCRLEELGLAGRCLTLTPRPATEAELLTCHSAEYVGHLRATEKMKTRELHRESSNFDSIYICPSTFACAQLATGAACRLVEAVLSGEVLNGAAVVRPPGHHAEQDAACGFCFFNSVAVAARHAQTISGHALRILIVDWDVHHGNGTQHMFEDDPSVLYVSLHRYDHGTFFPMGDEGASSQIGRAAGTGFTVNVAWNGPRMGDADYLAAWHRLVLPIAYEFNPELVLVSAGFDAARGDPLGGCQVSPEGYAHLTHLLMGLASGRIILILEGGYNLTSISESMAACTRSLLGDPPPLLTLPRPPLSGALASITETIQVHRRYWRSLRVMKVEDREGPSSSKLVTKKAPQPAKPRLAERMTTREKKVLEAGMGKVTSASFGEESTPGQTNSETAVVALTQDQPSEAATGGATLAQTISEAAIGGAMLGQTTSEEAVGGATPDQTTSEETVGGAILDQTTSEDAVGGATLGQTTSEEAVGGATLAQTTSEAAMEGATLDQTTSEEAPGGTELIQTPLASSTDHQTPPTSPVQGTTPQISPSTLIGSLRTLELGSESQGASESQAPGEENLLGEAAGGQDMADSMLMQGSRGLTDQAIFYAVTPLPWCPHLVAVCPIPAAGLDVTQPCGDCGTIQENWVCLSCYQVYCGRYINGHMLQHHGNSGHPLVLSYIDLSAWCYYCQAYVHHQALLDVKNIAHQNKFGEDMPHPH

[6] = Stability in human plasma assessed as half life measured upto 60 mins by LC-MS/MS analysis; type: ADME, cell-free
MV4-11 [7] = assay: cells; type: functional, cell-based; details: Homo sapiens, MV4-11, 72 h
[8] = target: T1, Protein deacetylase HDAC6 (Homo sapiens); assay: Inhibition of full length human recombinant HDAC6 in human MV4-11 cells assessed as increase in acetylation of alpha-tubulin at 0.1 uM for 6 hrs by Western blot analysis; type: cell-based
Histone deacetylase 7 = target: T2, Histone deacetylase 7 (Homo sapiens, UniProt Q8WUI4); assay: Inhibition of full length human recombinant HDAC7 expressed in Sf9 baculovirus system using FAM-labeled acetylated peptide as substrate by measuring fluorescence intensity by EMSA method
T2 sequence (Q8WUI4 whole entry): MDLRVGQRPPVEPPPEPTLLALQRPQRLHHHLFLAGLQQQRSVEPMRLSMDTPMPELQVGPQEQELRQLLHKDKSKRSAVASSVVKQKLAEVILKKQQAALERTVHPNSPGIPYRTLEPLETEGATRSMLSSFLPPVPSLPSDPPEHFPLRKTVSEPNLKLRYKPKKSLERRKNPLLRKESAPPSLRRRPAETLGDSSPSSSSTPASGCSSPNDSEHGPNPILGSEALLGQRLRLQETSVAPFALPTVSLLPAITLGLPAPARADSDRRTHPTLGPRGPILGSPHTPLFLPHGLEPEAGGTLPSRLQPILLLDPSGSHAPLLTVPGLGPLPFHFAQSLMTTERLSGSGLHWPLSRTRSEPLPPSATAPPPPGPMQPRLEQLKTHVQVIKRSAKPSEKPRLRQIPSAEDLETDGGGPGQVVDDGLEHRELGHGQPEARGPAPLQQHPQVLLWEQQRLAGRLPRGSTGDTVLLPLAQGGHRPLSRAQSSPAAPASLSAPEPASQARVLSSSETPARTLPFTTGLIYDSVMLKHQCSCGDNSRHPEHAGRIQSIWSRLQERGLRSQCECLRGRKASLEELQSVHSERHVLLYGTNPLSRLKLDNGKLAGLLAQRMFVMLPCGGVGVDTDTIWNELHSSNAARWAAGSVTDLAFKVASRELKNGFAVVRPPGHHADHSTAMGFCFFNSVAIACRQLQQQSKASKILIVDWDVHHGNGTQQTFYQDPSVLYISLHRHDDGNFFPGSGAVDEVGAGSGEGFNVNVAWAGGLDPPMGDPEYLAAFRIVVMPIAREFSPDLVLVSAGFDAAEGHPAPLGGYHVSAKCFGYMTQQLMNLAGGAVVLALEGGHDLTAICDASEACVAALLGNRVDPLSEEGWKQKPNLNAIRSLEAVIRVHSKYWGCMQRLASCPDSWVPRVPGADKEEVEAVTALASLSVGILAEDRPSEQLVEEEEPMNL

[9] = Cytotoxicity against primary normal human fibroblast cells assessed as inhibition of cell growth incubated for 72 hrs measured by spectrophotometer analysis; type: toxicity, cell-based
[10] = target: T1, Protein deacetylase HDAC6 (Homo sapiens); assay: Inhibition of full length human recombinant HDAC6 in human MV4-11 cells assessed as acetylation of histone H3 at 5 uM by Western blot analysis; type: cell-based; details: time 6.0 hrs
[11] = target: T1, Protein deacetylase HDAC6 (Homo sapiens); assay: Inhibition of full length human recombinant HDAC6 in human MV4-11 cells assessed as increase in acetylation of […] for 6 hrs by immunofluorescence imaging method; type: cell-based; details: dose 0.1-2 µM, DDE = dose-dependent effect
MB002 = assay: Cytotoxicity against refractory human group 3 SU_MB002 cells; type: functional, cell-based
MV4-11 [12] = assay: Induction of apoptosis in human MV4-11 cells assessed as viable cells at 0.75 uM after 24 hrs by Annexin V/PI staining based flow cytometric analysis (Rvb=58.28%); type: functional; details: read-out: Activity

CC(C)N(Cc1ccc(C(=O)NO)cc1)S(=O)(=O)c1cc(F)c(F)c(F)c1F
pKa [1]: 8.77
viability at 2 µM (MV4-11 [2]): 32.9%
Activity (HD-MB03): Active
IC50 at 72 h [3]: 5.76 µM
viability at 0.25 µM (MV4-11 [4]): 82%
TIME [5]: 0.133 h
half-life [6]: 1.92 h
IC50 (MV4-11 [7]): 1.19 µM
inhibition [8]: Active
IC50 (Histone deacetylase 7): > 5 µM
IC50 at 72 h [9]: 12.4 µM
inhibition [10]: Active
inhibition [11]: Dde
Activity (MB002): Active
viability at 0.75 µM (MV4-11 [12]): 85.7%
